{"source": "patent US20100048723A1", "about": "“Compositions and Methods for Preventing or Treating Obesity In Animals” (priority 2007, published 2010)", "system": "canine genes", "test": "Canine cell culture genomic assay: modification of gene expression in vitro (Affymetrix canine gene chips)", "format": "cell-based", "design": "key: those genes that are modified by capsaicin are identified by an asterix (*)", "conditions": "canine cell lines CCL34, CRL1430, CCL183, CTAC; up or down regulation", "procedure": "We have compiled a database of substances known to modify the expression of various canine genes in canine cells in vitro according to the following methods provided below and previously described (see, e.g., U.S. 2006-0200320 Al).\nTest substances are assayed in two concentrations using the following canine cell lines: CCL34 (kidney), CRL1430 (thymus), CCL183 (bone) (all obtained from the American Tissue Culture Collection) and CTAC (thyroid) (see, Measurement of NK Activity in Effector Cells Purified from Canine Peripheral Lymphocytes, Veterinary Immunology and Immunopathology, 35 (1993) 239-25 1). Briefly, cells are cultured in OptiCell chambers according to conventional methods and the next day treated with test substance. The solvent used at the higher of the two concentrations is used as a control. The following day the cells are harvested for genomic assay.\nRNA is isolated from the canine cultures using commercially available methods, e.g., an RNAeasy Mini Kit (Qiagen, Valencia, Calif.) according to the manufacturers instructions and conventional methods. The quality of the isolated RNA is analyzed using a RNA 6000 Nano Assay and an Agilent 2100 Bioanalyzer. The procedure is performed according to the manufacturer's instructions provided in the Reagent Kit Guide (see Edition November 2003, by Agilent Technologies) with the following modifications: during gel preparation, rather than separating the filtered gel into aliquots of 65 uL each, the stock filtered gel is kept in the original microcentrifuge tube and the 65 uL is aliquoted as needed; while loading the RNA 6000 Nano Marker, 1 uL of RNase-free water (instead of RNA 6000 Nano Marker) is added to each sample well that will not contain sample. When loading the RNA 6000 Ladder and samples, heat denature the samples and RNA 6000 Ladder for an additional 30 seconds (total of 2.5 minutes) at 71° C.; with regard to “Starting the Chip Run”, choose the “Eukaryote Total RNA Nano” option from the assay menu.\nGene expression is measured for the treatment cell lines and controls using Affymetrix canine gene chips Canine-1 and Canine-2 according to the manufacturer's instructions. Gene expression data is determined to be either “up” or “down”-regulated for any given treatment. The decision on whether a gene is “up” or “down” is based on the fold change, which is calculated as treatment intensity/control intensity for each individual probe. […] Also, a probe is considered significant for further scrutiny if it is called as “present” in only one of the conditions being compared (treatment or control) and is “absent” or “marginal” in the other and the fold change is significant according to the software used. Probes that appear to be regulated in opposite directions in the two treatments are excluded from further analysis. The raw data is analyzed using GeneSpring version 7.0 (GS) software (Agilent Corporation) and validated using the R-Bioconductor (RB) freeware. Both software packages are used to compute probe intensities from the CEL files generated by the Affymetrix Instrument. The Present/Absent/Marginal calls per probe and P-values are computed using the R-Bioconductor and GeneSpring software separately.\nTwo schemes are used for data analysis. First: “across cell lines” and “within individual cell lines.” In the first scheme, genes are selected for scoring provided they are found to be significant and common across all cell-lines. The “across cell lines” yields the highest confidence data with minimum noise and may provide the best possible clues as to which genes are affected by individual ingredients. In the second scheme, only those genes that show a significant fold change in the two treatments according to both software packages within an individual cell lines are scored.\nTable 1A provided hereinabove is a list of canine genes the expression of which is modified in vitro in the presence of various compounds. […]", "note": "Marks after values point to notes of the source that are not given here."}
{"smiles": "COc1cc(CNC(=O)CCCCC=CC(C)C)ccc1O", "note": "[capsaicin, 8-methyl-N-vanillyl-6-nonenamide]", "values": [{"measurement": "expression of Complement component 4 modified in canine cells in vitro", "value": "Complement component 4 *"}, {"measurement": "expression of Fragilis/homolog to rat interferon-inducible protein modified in canine cells in vitro", "value": "protein*"}, {"measurement": "expression of Homolog to Homo sapiens interferon-induced 35-kDa protein modified in canine cells in vitro", "value": "kDa protein*"}, {"measurement": "expression of L-Plastin/lymphocyte cytosolic protein 1 modified in canine cells in vitro", "value": "L-Plastin/lymphocyte cytosolic protein 1*"}, {"measurement": "expression of α Cytochrome b558/cytochrome b-245 modified in canine cells in vitro", "value": "^α Cytochrome b558/cytochrome b-245 *"}, {"measurement": "expression of α Tubulin, 1 modified in canine cells in vitro", "value": "^α Tubulin, 1 *"}]}
